Experimental data: US11591365B2, “BCL9 peptides and variants thereof” (WntRx Pharmaceuticals Inc., priority 2017, dated 2023)
Where a SMILES comes first, the peptide text is derived from it. Bridges are numbered along the chain shown (N, C = ends). [ ]: non-standard residue; d: D form. 2Nal = N[C@@H](Cc1ccc2ccccc2c1)C(=O)O; NMeQ = CN[C@@H](CCC(N)=O)C(=O)O; Cha = N[C@@H](CC1CCCCC1)C(=O)O; Cba = N[C@@H](CC1CCC1)C(=O)O; S5 = C=CCCC[C@](C)(N)C(=O)O

Key:
[1] = tested on: Colo320DM; test: Colo320DM cell viability; assay type: cell-based, human
Source text: In some embodiments, a polypeptide described herein inhibits binding of BLC9 to β-catenin when assessed in a cell-viability assay. In some embodiments, the cell-viability assay is a CellTiterGlo luminescent assay, wherein the viability of cells is quantitatively measured. Various cell lines, transformed cell lines or primary cells derived from a healthy subject or subject suffering from a disease can be used in this assay.

[2] = tested on: LEF-TCF-bla HCT116 cells; test: Wnt reporter assay: Wnt/Beta-Catenin-LEF-TCF-bla HCT116 inhibitor screen, constitutively activated; assay type: cell-based; settings: 5 hours incubation with compound
Source text: In various embodiments, a polypeptide described herein inhibits binding of BCL9 to β-catenin when assessed in a Wnt transcription assay. In some embodiments, the Wnt transcription assay is a cell-based assay. In some embodiments, the cell-based Wnt transcription assay is a GeneBLAzer® beta-lactamase (bla) reporter assay. Various cell lines, transformed cell lines or primary cells derived from a healthy subject or subject suffering from a disease can be used in this assay. A cell line known to be dependent on canonical Wnt/β-catenin signaling for its survival may also be used. In some embodiments, CellSensor™ LEF/TCF-bla HCT-116 cells are used in this reporter assay. These cells contain a beta-lactamase (BLA) reporter gene under the control of a 0-catenin/LEF/TCF response element stably integrated into HCT-116 cells. As the cells constitutively express beta-lactamase, adding a polypeptide that inhibits binding of BCL9 to β-catenin in this assay leads to reduced production of beta-lactamase. The efficiency of the polypeptide in suppressing Wnt transcription can therefore be quantitatively calculated in this assay. In some embodiments, a polypeptide described herein suppresses the Wnt transcription as measured in a GeneBLAzer® beta-lactamase (bla) reporter assay, which is indicative of the ability of the polypeptide to inhibit binding of BCL9 to β-catenin.
Wnt/Beta-Catenin-LEF-TCF-bla HCT116-Inhibitor Screen, Constitutively Activated. LEF-TCF-bla HCT116 cells are thawed and prepared as described above for the Activator Screen. 32 μL of cell suspension is added to each well of a 384-well Poly-D-Lysine assay plate. Cells in Assay Media are incubated for 16-24 hours in the plate at 37° C./5% CO2 in a humidified incubator. 4 μL of a 10× serial dilution of ICG-001 (control inhibitor starting concentration, 25,000 nM) or compounds are added to appropriate wells of the plate. 4 μL of Assay Media is added to all wells to bring the final assay volume to 40 μL. The plate is incubated for 5 hours at 37° C./5% CO2 in a humidified incubator. 8 μL of 1 μM Substrate Loading Solution is added to each well and the plate is incubated for 2 hours at room temperature. The plate is read on a fluorescence plate reader.

[3] = molecular target: T1, β-catenin (Homo sapiens, UniProt P35222); test: ka(1/Ms)
T1 sequence (P35222 2-781 limits assumed): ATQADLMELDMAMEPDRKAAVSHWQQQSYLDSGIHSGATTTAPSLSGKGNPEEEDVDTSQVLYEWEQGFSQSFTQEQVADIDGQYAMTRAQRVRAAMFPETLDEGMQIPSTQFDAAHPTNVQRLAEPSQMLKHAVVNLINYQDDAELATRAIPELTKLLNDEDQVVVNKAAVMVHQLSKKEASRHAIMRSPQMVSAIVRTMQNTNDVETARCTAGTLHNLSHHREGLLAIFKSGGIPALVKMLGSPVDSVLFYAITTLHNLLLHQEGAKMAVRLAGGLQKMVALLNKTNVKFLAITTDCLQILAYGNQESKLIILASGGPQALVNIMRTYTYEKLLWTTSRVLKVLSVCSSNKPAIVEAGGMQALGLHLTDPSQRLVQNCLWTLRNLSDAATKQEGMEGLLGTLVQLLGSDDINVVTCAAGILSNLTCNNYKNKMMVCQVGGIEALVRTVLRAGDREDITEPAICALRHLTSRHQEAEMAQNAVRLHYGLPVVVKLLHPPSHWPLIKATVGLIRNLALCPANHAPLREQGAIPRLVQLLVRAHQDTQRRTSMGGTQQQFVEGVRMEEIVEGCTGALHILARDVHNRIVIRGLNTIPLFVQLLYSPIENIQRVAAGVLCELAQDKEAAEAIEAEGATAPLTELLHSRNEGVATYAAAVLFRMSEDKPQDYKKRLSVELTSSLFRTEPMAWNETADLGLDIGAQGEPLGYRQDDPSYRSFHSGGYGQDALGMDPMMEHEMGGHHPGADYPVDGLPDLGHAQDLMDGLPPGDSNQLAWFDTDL
Source text: (§1) Table printed on a drawing sheet, FIG. 1
Head of the field: ka(1/Ms)
(§2) First copying reader's note: Kinetic binding constants printed under a sensorgram plot (Biacore assay of β-catenin binding according to the description).

[4] = molecular target: T1, β-catenin; test: KD(nM)
Source text: as §1
Head of the field: KD(nM)
as §2

[5] = molecular target: T1, β-catenin; test: kd(1/s)
Source text: as §1
Head of the field: kd(1/s)
as §2

Question: For CC[C@H](C)[C@@H]1NC(=O)[C@@](C)(NC(=O)[C@H](CCCNC(=N)N)NC(=O)[C@H](CC(C)C)NC(=O)[C@@H](NC(=O)[C@H](CCC(N)=O)NC(=O)[C@H](CC(C)C)NC(=O)[C@H](CO)NC(=O)[C@H](CCCNC(=N)N)NC(=O)[C@H](CCC(N)=O)NC(=O)[C@H](CCCNC(=N)N)NC(=O)[C@H](Cc2c[nH]cn2)NC(C)=O)[C@@H](C)O)CCCC=CCCC[C@@](C)(C(=O)N[C@@H](CC2CCC2)C(=O)N[C@@H](Cc2ccc3ccccc3c2)C(N)=O)NC(=O)[C@H](CCCNC(=N)N)NC(=O)[C@H](CCC(N)=O)NC1=O [SEQ ID NO: 147, HRQRSLQTLRXIQRX(CBA)(2-Nal)], which IC50 [1] is on record?
Answer: Its IC50 is 2530 nM.

Question: What about the IC50 [2] of the same compound?
Answer: The IC50 was 1540 nM.

Question: What about the “ka(1/Ms)” value [3] of the same compound?
Answer: The value was 3.348E + 5 1/Ms.

Question: What about the Kd [4] of the same compound?
Answer: The Kd was 28.5 nM.

Question: And the “kd” value [5]?
Answer: Its value is 0.009538 s⁻¹.

Question: CC[C@H](C)[C@@H]1NC(=O)[C@@](C)(NC(=O)[C@H](CCCNC(=N)N)NC(=O)[C@H](CC2CCCCC2)NC(=O)[C@@H](NC(=O)[C@H](CCC(N)=O)N(C)C(=O)[C@H](CC(C)C)NC(=O)[C@H](CO)NC(=O)[C@H](CCCNC(=N)N)NC(=O)[C@H](CCC(N)=O)N(C)C(=O)[C@H](CCCNC(=N)N)NC(=O)[C@H](Cc2c[nH]cn2)NC(C)=O)[C@@H](C)O)CCCC=CCCC[C@@](C)(C(=O)N[C@@H](CC2CCC2)C(=O)N[C@@H](Cc2ccc3ccccc3c2)C(N)=O)NC(=O)[C@H](CCCNC(=N)N)NC(=O)[C@H](CCC(N)=O)NC1=O [SEQ ID NO: 163, HR(N-methylQ)RSL(N-methylQ)T(Cha)RXIQRX(CBA)(2-Nal)] (Ac-HR[NMeQ]RSL[NMeQ]T[Cha]R[S5]IQR[S5][Cba][2Nal]-NH2; staple 11-15; N-terminus and C-terminus assumed) was tested. Which IC50 [1] did it give?
Answer: Its IC50 is 2390 nM.

Question: And the IC50 [2]?
Answer: Its IC50 is 4430 nM.
